Measurements reported in patent US20070128217A1 (priority 2003, published 2007).

Experiments:
[1] = test system: antibodies in sera from SARS patients (sera 1a, 1b, 2, 6, 37, 62, London, SARS-yellow, SARS-green); assay type: binding, human; design: Binding of serum 6 to linear peptides of protein X1 of SARS-CoV Urbani / Binding of serum 37 to linear peptides of protein X1 of SARS-CoV Urbani / Binding of serum 6 to looped/cyclic peptide (PEPSCAN-ELISA) / Binding of serum 37 to looped/cyclic peptide (PEPSCAN-ELISA) / Binding of serum 37 to looped/cyclic peptides of protein X1 of SARS-CoV Urbani / Binding of serum 6 to linear peptides of protein X2 / Binding of serum 37 to linear peptides of protein X2 / Binding of serum 37 to looped/cyclic peptides of protein X2 of SARS-CoV Urbani / Binding of serum 6 to linear peptides of protein M of SARS-CoV Urbani / Binding of serum 37 to linear peptides of protein M of SARS-CoV Urbani / Binding of serum 6 to looped/cyclic peptides of protein M of SARS-CoV Urbani / Binding of serum 37 to looped/cyclic peptides of protein M of SARS-CoV Urbani / Binding of serum 6 to linear peptides of protein X3 of SARS-CoV Urbani / Binding of serum 37 to linear peptides of protein X3 of SARS-CoV Urbani / Binding of serum 37 to looped/cyclic peptides of protein X3 of SARS-CoV Urbani / Binding of serum 6 to linear peptides of protein X4 of SARS-CoV Urbani / Binding of serum 37 to linear peptides of protein X4 of SARS-CoV Urbani / Binding of serum 37 to looped/cyclic peptides of protein X4 of SARS-CoV Urbani / Binding of serum 6 to linear peptides of protein X5 of SARS-CoV Urbani / Binding of serum 37 to linear peptides of protein X5 of SARS-CoV Urbani / Binding of serum 37 to looped/cyclic peptides of protein X5 of SARS-CoV Urbani / Binding of serum 6 to linear peptides of protein N of SARS-CoV Urbani / Binding of serum 37 to linear peptides of protein N of SARS-CoV Urbani / Binding of serum 6 to linear peptide (PEPSCAN-ELISA) / Binding of serum 1a to looped/cyclic peptides of protein N of SARS-CoV Urbani / Binding of serum 1b to looped/cyclic peptides of protein N of SARS-CoV Urbani / Binding of serum 2 to looped/cyclic peptides of protein N of SARS-CoV Urbani / Binding of serum 6 to looped/cyclic peptides of protein N of SARS-CoV Urbani / Binding of serum 37 to looped/cyclic peptides of protein N of SARS-CoV Urbani / Binding of serum 62 to looped/cyclic peptides of protein N of SARS-CoV Urbani / Binding of serum London to looped/cyclic peptides of protein N of SARS-CoV Urbani / Binding of serum SARS-green to looped/cyclic peptides of protein N of SARS-CoV Urbani: unit not given here
[2] = test system: control sera (pooled serum of ten healthy LUMC hospital workers; commercial negative donor pooled serum from the Dutch bloodbank); assay type: binding, human; design: Binding of Control serum LUMC to linear peptides / Binding of Control serum Blood-bank to linear peptides / Binding of Control serum LUMC to looped peptides / Binding of Control Serum Blood-Bank to Looped peptides / Binding of Control serum LUMC to linear peptides of the protein M of SARS-CoV Urbani / Binding of Control serum Blood-bank to linear peptides of the protein M of SARS-CoV Urbani / Binding of Control serum LUMC to looped peptides of the protein M of SARS-CoV Urbani / Binding of Control Serum Blood-Bank to Looped peptides of the protein M of SARS-CoV Urbani: unit not given here
[3] = test system: rabbit serum obtained by immunizing a rabbit with the SARS-CoV strain Frankfurt 1; assay type: binding; design: Binding of a rabbit serum to linear peptides / Binding of a rabbit serum to looped peptides / Rabbit serum linear peptides / Rabbit serum looped peptides / Binding of a rabbit serum to linear peptides of protein N of SARS-CoV Urbani (Rabbit serum linear peptides) / Binding of a rabbit serum to looped/cyclic peptides of protein N of SARS-CoV Urbani (Rabbit serum looped peptides): unit not given here

VAAGMEAQFLYLYAL
Binding of serum 1a to linear peptides of protein X1 of SARS-CoV Urbani [1]: 0.7
Binding of serum 1a to looped/cyclic peptide (PEPSCAN-ELISA) [1]: 0.5
Binding of serum 1b to linear peptides of protein X1 of SARS-CoV Urbani [1]: 0.6
Binding of serum 1b to looped/cyclic peptide (PEPSCAN-ELISA) [1]: 0.4
Binding of serum 2 to linear peptides of protein X1 of SARS-CoV Urbani [1]: 0.5
Binding of serum 2 to looped/cyclic peptide (PEPSCAN-ELISA) [1]: 0.4
Binding of serum 6 to linear peptides of protein X1 of SARS-CoV Urbani [1]: 0.4
Binding of serum 6 to looped/cyclic peptide (PEPSCAN-ELISA) [1]: 0.3
Binding of serum 37 to linear peptides of protein X1 of SARS-CoV Urbani [1]: 0.5
Binding of serum 37 to looped/cyclic peptide (PEPSCAN-ELISA) [1]: 0.5
Binding of serum 62 to linear peptides of protein X1 of SARS-CoV Urbani [1]: 0.4
Binding of serum 62 to looped/cyclic peptide (PEPSCAN-ELISA) [1]: 0.5
Binding of serum London to linear peptides of protein X1 of SARS-CoV Urbani [1]: 0.2
Binding of serum London to looped/cyclic peptide (PEPSCAN-ELISA) [1]: 0.2
Binding of serum SARS-green to linear peptides of protein X1 of SARS-CoV Urbani [1]: 0.2
Binding of serum SARS-green to looped/cyclic peptide (PEPSCAN-ELISA) [1]: 0.3
Binding of serum SARS-yellow to linear peptides of protein X1 of SARS-CoV Urbani [1]: 0.3
Binding of serum SARS-yellow to looped/cyclic peptide (PEPSCAN-ELISA) [1]: 0.5
Binding of Control Serum Blood-Bank to Looped peptides [2]: 0.5
Binding of Control serum Blood-bank to linear peptides [2]: 0.5
Binding of Control serum LUMC to linear peptides [2]: 0.9
Binding of Control serum LUMC to looped peptides [2]: 0.8
Binding of a rabbit serum to linear peptides [3]: 0.1
Binding of a rabbit serum to looped peptides [3]: 0.5

AWIMLLQFAYSNRNR
Binding of serum 1a to linear peptides of protein M of SARS-CoV Urbani [1]: 0.7
Binding of serum 1a to looped/cyclic peptides of protein M of SARS-CoV Urbani [1]: 0.7
Binding of serum 1b to linear peptides of protein M of SARS-CoV Urbani [1]: 0.6
Binding of serum 1b to looped/cyclic peptides of protein M of SARS-CoV Urbani [1]: 0.7
Binding of serum 2 to linear peptides of protein M of SARS-CoV Urbani [1]: 0.5
Binding of serum 2 to looped/cyclic peptides of protein M of SARS-CoV Urbani [1]: 0.6
Binding of serum 6 to linear peptides of protein M of SARS-CoV Urbani [1]: 0.5
Binding of serum 6 to looped/cyclic peptides of protein M of SARS-CoV Urbani [1]: 1.1
Binding of serum 37 to linear peptides of protein M of SARS-CoV Urbani [1]: 0.4
Binding of serum 37 to looped/cyclic peptides of protein M of SARS-CoV Urbani [1]: 0.6
Binding of serum 62 to linear peptides of protein M of SARS-CoV Urbani [1]: 0.4
Binding of serum 62 to looped/cyclic peptides of protein M of SARS-CoV Urbani [1]: 0.6
Binding of serum London to linear peptides of protein M of SARS-CoV Urbani [1]: 0.3
Binding of serum London to looped/cyclic peptides of protein M of SARS-CoV Urbani [1]: 0.6
Binding of serum SARS-green to linear peptides of protein M of SARS-CoV Urbani [1]: 0.6
Binding of serum SARS-green to looped/cyclic peptides of protein M of SARS-CoV Urbani [1]: 0.4
Binding of serum SARS-yellow to linear peptides of protein M of SARS-CoV Urbani [1]: 0.2
Binding of serum SARS-yellow to looped/cyclic peptides of protein M of SARS-CoV Urbani [1]: 0.7
Binding of Control Serum Blood-Bank to Looped peptides of the protein M of SARS-CoV Urbani [2]: 0.7
Binding of Control serum Blood-bank to linear peptides of the protein M of SARS-CoV Urbani [2]: 0.7
Binding of Control serum LUMC to linear peptides of the protein M of SARS-CoV Urbani [2]: 0.5
Binding of Control serum LUMC to looped peptides of the protein M of SARS-CoV Urbani [2]: 0.7
Rabbit serum linear peptides [3]: 0.3
Rabbit serum looped peptides [3]: 0.4

ALYKGFQFICNLLLL
Binding of serum 1a to linear peptides of protein X1 of SARS-CoV Urbani [1]: 0.6
Binding of serum 1a to looped/cyclic peptide (PEPSCAN-ELISA) [1]: 0.4
Binding of serum 1b to linear peptides of protein X1 of SARS-CoV Urbani [1]: 0.5
Binding of serum 1b to looped/cyclic peptide (PEPSCAN-ELISA) [1]: 0.3
Binding of serum 2 to linear peptides of protein X1 of SARS-CoV Urbani [1]: 0.4
Binding of serum 2 to looped/cyclic peptide (PEPSCAN-ELISA) [1]: 0.3
Binding of serum 6 to linear peptides of protein X1 of SARS-CoV Urbani [1]: 0.4
Binding of serum 6 to looped/cyclic peptide (PEPSCAN-ELISA) [1]: 1.3
Binding of serum 37 to linear peptides of protein X1 of SARS-CoV Urbani [1]: 0.5
Binding of serum 37 to looped/cyclic peptide (PEPSCAN-ELISA) [1]: 0.4
Binding of serum 62 to linear peptides of protein X1 of SARS-CoV Urbani [1]: 0.5
Binding of serum 62 to looped/cyclic peptide (PEPSCAN-ELISA) [1]: 0.4
Binding of serum London to linear peptides of protein X1 of SARS-CoV Urbani [1]: 0.2
Binding of serum London to looped/cyclic peptide (PEPSCAN-ELISA) [1]: 1.4
Binding of serum SARS-green to linear peptides of protein X1 of SARS-CoV Urbani [1]: 0.2
Binding of serum SARS-green to looped/cyclic peptide (PEPSCAN-ELISA) [1]: 0.2
Binding of serum SARS-yellow to linear peptides of protein X1 of SARS-CoV Urbani [1]: 0.5
Binding of serum SARS-yellow to looped/cyclic peptide (PEPSCAN-ELISA) [1]: 0.4
Binding of Control Serum Blood-Bank to Looped peptides [2]: 0.5
Binding of Control serum Blood-bank to linear peptides [2]: 0.6
Binding of Control serum LUMC to linear peptides [2]: 0.5
Binding of Control serum LUMC to looped peptides [2]: 0.5
Binding of a rabbit serum to linear peptides [3]: 0.6
Binding of a rabbit serum to looped peptides [3]: 0.4

FMMSRRRLLACLCKH
Binding of serum 1a to linear peptides of protein X2 [1]: 0.7
Binding of serum 1a to looped/cyclic peptides of protein X2 of SARS-CoV Urbani [1]: 0.4
Binding of serum 1b to linear peptides of protein X2 [1]: 0.5
Binding of serum 1b to looped/cyclic peptides of protein X2 of SARS-CoV Urbani [1]: 0.4
Binding of serum 2 to linear peptides of protein X2 [1]: 0.5
Binding of serum 2 to looped/cyclic peptides of protein X2 of SARS-CoV Urbani [1]: 0.3
Binding of serum 6 to linear peptides of protein X2 [1]: 0.7
Binding of serum 6 to looped/cyclic peptides of protein X2 of SARS-CoV Urbani [1]: 0.5
Binding of serum 37 to linear peptides of protein X2 [1]: 0.6
Binding of serum 37 to looped/cyclic peptides of protein X2 of SARS-CoV Urbani [1]: 0.3
Binding of serum 62 to linear peptides of protein X2 [1]: 0.6
Binding of serum 62 to looped/cyclic peptides of protein X2 of SARS-CoV Urbani [1]: 0.4
Binding of serum London to linear peptides of protein X2 [1]: 0.7
Binding of serum London to looped/cyclic peptides of protein X2 of SARS-CoV Urbani [1]: 1.2
Binding of serum SARS-green to linear peptides of protein X2 [1]: 0.5
Binding of serum SARS-green to looped/cyclic peptides of protein X2 of SARS-CoV Urbani [1]: 0.3
Binding of serum SARS-yellow to linear peptides of protein X2 [1]: 0.5
Binding of serum SARS-yellow to looped/cyclic peptides of protein X2 of SARS-CoV Urbani [1]: 0.5
Binding of Control Serum Blood-Bank to Looped peptides [2]: 0.6
Binding of Control serum Blood-bank to linear peptides [2]: 0.7
Binding of Control serum LUMC to linear peptides [2]: 0.4
Binding of Control serum LUMC to looped peptides [2]: 0.5
Binding of a rabbit serum to linear peptides [3]: 0.4
Binding of a rabbit serum to looped peptides [3]: 0.6

HFAFACADGTRHTYQ
Binding of serum 1a to linear peptides of protein X4 of SARS-CoV Urbani [1]: 0.7
Binding of serum 1a to looped/cyclic peptides of protein X4 of SARS-CoV Urbani [1]: 0.6
Binding of serum 1b to linear peptides of protein X4 of SARS-CoV Urbani [1]: 0.5
Binding of serum 1b to looped/cyclic peptides of protein X4 of SARS-CoV Urbani [1]: 0.5
Binding of serum 2 to linear peptides of protein X4 of SARS-CoV Urbani [1]: 0.4
Binding of serum 2 to looped/cyclic peptides of protein X4 of SARS-CoV Urbani [1]: 0.6
Binding of serum 6 to linear peptides of protein X4 of SARS-CoV Urbani [1]: 0.6
Binding of serum 6 to looped/cyclic peptides of protein X4 of SARS-CoV Urbani [1]: 0.6
Binding of serum 37 to linear peptides of protein X4 of SARS-CoV Urbani [1]: 0.6
Binding of serum 37 to looped/cyclic peptides of protein X4 of SARS-CoV Urbani [1]: 0.6
Binding of serum 62 to linear peptides of protein X4 of SARS-CoV Urbani [1]: 0.6
Binding of serum 62 to looped/cyclic peptides of protein X4 of SARS-CoV Urbani [1]: 0.5
Binding of serum London to linear peptides of protein X4 of SARS-CoV Urbani [1]: 0.6
Binding of serum London to looped/cyclic peptides of protein X4 of SARS-CoV Urbani [1]: 0.2
Binding of serum SARS-green to linear peptides of protein X4 of SARS-CoV Urbani [1]: 0.6
Binding of serum SARS-green to looped/cyclic peptides of protein X4 of SARS-CoV Urbani [1]: 0.2
Binding of serum SARS-yellow to linear peptides of protein X4 of SARS-CoV Urbani [1]: 0.1
Binding of serum SARS-yellow to looped/cyclic peptides of protein X4 of SARS-CoV Urbani [1]: 0.4
Binding of Control Serum Blood-Bank to Looped peptides [2]: 0.8
Binding of Control serum Blood-bank to linear peptides [2]: 0.6
Binding of Control serum LUMC to linear peptides [2]: 0.7
Binding of Control serum LUMC to looped peptides [2]: 0.7
Rabbit serum linear peptides [3]: 0.4
Rabbit serum looped peptides [3]: 0.1
